{"source": "patent US20190151351A1", "about": "“REGULATORS OF ANAPLASTIC LYMPHOMA KINASE AND USES THEREOF” (Celldex Therapeutics, Inc., priority 2014, published 2019)", "key": {"[1]": {"biological_target": "FL-ECD binding to heparin", "test": "SPR competition: inhibition of FL-ECD binding to heparin surface", "protocol": "FIG. 8: Sucrose octasulfate (SOS) inhibits ALK binding to heparin in a dose-dependent manner, as measured by SPR. A titration of SOS was pre-incubated with 350 nM of FL-ECD. These complexes were then injected over the heparin surface.\nThese complexes were then injected over the heparin surface. […] In addition, the IC50 and inhibition constant values indicate a high degree of specificity for the interaction between heparin and ALK.\nA BIACORE™ T100 instrument was used at 25° C. using 25 mM Hepes, 300 mM NaCl, 10% Glycerol, pH 7.4. All reagents were dialyzed with this buffer prior to use. Heparin-biotin (Sigma) sold as ≥97% pure was further purified using PD-10 pre-packed columns (GE-Healthcare) to remove free biotin in solution. Heparin-biotin was then immobilized on an assembled NeutrAvidin surface (amine coupled on a CM4 Series-S Biacore chip): three surfaces were produced with different concentrations of immobilized heparin by varying contact time from 48 to 240 s, and excess ligand was removed. Due to the heterogeneous nature of heparins, the surface was a combination of many chain lengths of heparin. Three-fold dilutions of FL-ECD and ΔN-ECD were injected sequentially over a reference surface without heparin and three heparin surfaces. The surface was regenerated between cycles with 2.5 M NaCl, 5 mM Acetic Acid, pH 4.5. For the SOS competition assay, serial dilutions of SOS were pre-incubated with 0.350 μM FL-ECD and then injected over the chip. Data were analyzed using the BiaCore T100 software."}, "ALK [2]": {"system": "ALK", "test": "SOS inhibition of heparin-induced phosphorylation in NB1 neuroblastoma cells", "assay_type": "cell-based", "conditions": "SOS 0-10 mg/mL along with 10 μg/mL heparin", "protocol": "FIG. 4: Heparin induced activation of ALK is inhibited by sucrose-octasulfate (SOS).\nNB1 neuroblastoma cells were treated with increasing doses of SOS (0, 0.001, 0.01, 0.1, 1, and 10 mg/mL) along with 10 μg/mL of heparin."}, "ALK [3]": {"system": "ALK", "test": "Western blot of ALK and AKT phosphorylation in NB1 neuroblastoma cells (heparin dose response, other glycosaminoglycans)", "assay_type": "cell-based", "conditions": "heparin 0-100 μg/mL, other glycosaminoglycans at 10 μg/mL", "protocol": "NB1 neuroblastoma cells were treated with increasing doses of heparin (0, 0.001, 0.01, 0.1, 1, 10, 100 μg/mL heparin), and phosphorylation of ALK and AKT was monitored by Western blot analysis. Various glycosaminoglycans at 10 μg/mL were also assessed for their ability to activate ALK. An ALK-agonistic mAb was used as a positive control for pALK and pAKT."}, "ALK [4]": {"system": "ALK", "test": "Western blot of ALK and MAPK phosphorylation in NB1 neuroblastoma cells", "assay_type": "cell-based", "conditions": "heparin 10 μg/mL", "protocol": "FIG. 2: Heparin, but neither PTN or MK, induces ALK tyrosine phosphorylation. […] An agonistic anti-ALK monoclonal antibody was used as a positive control for activation of ALK and MAPK.\nNB1 neuroblastoma cells were treated with heparin (Hep), pleiotrophin (PTN), and midkine (MK) to determine the influence of each on ALK phosphorylation. […] An agonistic anti-ALK monoclonal antibody was used as a positive control for activation of ALK and MAPK."}}}
{"molecule": "O=S(=O)(O)OC[C@H]1O[C@@](COS(=O)(=O)O)(O[C@H]2O[C@H](COS(=O)(=O)O)[C@@H](OS(=O)(=O)O)[C@H](OS(=O)(=O)O)[C@H]2OS(=O)(=O)O)[C@@H](OS(=O)(=O)O)[C@@H]1OS(=O)(=O)O", "note": "[SOS, Sucrose-octasulfate]", "values": [{"measurement": "Ki", "setting": "[1]; SPR SOS competition with 350 nM FL-ECD, read-out: inhibition constant (Ki)", "result": 2250, "unit": "nM"}, {"measurement": "IC50", "setting": "[1]; SPR, SOS pre-incubated with 350 nM FL-ECD, Rmax values", "result": 6500, "unit": "nM"}, {"measurement": "Kd", "setting": "[1]; calculated using the Cheng-Prusoff equation, read-out: KD for SOS/FL-ECD binding", "result": 2250, "unit": "nM"}, {"measurement": "inhibition of heparin-induced phosphorylation of ALK, AKT and MAPK", "setting": "ALK [2]", "result": "capable of inhibiting heparin-induced phosphorylation of ALK, AKT, and MAPK in a dose dependent manner"}]}
{"molecule": "Dextran sulfate", "values": [{"measurement": "phosphorylation of ALK and AKT", "setting": "ALK [3]", "result": "induce phosphorylation of ALK and AKT"}]}
{"molecule": "PTN: secreted protein Pleiotrophin, proposed as physiological ALK ligand (protein) GKKEKPEKKVKKSDCGEWQWSVCVPTSGDCGLGTREGTRTGAECKQTMKTQRCKIPCNWKKQFGAECKYQFQAWGECDLNTALKTRTGSLKRALHNAECQKTVTISKPCGKLTKPKPQAESKKKKKEGKKQEKMLD", "values": [{"measurement": "ALK (tyrosine) phosphorylation", "setting": "ALK [4]", "result": "neither PTN nor MK influence ALK phosphorylation"}]}
{"molecule": "MK: secreted protein Midkine, proposed as physiological ALK ligand (protein) VAKKKDKVKKGGPGSECAEWAWGPCTPSSKDCGVGFREGTCGAQTQRIRCRVPCNWKKEFGADCKYKFENWGACDGGTGTKVRQGTLKKARYNAQCQETIRVTKPCTPKTKAKAKAKKGKGKD", "values": [{"measurement": "ALK (tyrosine) phosphorylation", "setting": "ALK [4]", "result": "neither PTN nor MK influence ALK phosphorylation"}]}
